Measurements from US10947196B2, “Beta adrenergic agonist and methods of using the same” (CURASEN THERAPEUTICS, INC., priority 2019, dated 2021).
Read-outs that look alike come from different tables or passages of the source.

Columns and labels:
Type in all cases: cell-based
β1-adrenergic receptor = β1-adrenergic receptor (Homo sapiens (Human), UniProt P08588); assay: cAMP Gs dynamic HTRF assay, β1 expressing CHO cells; settings: B1-AR
How it was run: (§1)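 Intracellular cAMP quantified by Eu-donor/d2-acceptor HTRF after 30 min compound exposure at 37° C in stimulation buffer with IBMX. Concentrations ran 10 μM top, 5-fold steps, 10 points. Cell lines: 1321N1 astrocytoma and CHO expressing β1 or β2; EC50 via four-parameter fit, relative efficacy against isoproterenol.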

β2 adrenergic receptor = β2 adrenergic receptor (Homo sapiens (Human), UniProt P07550); assay: cAMP Gs dynamic HTRF assay, β2 expressing CHO cells; settings: B2-AR
How it was run: as §1

[1] = target: β2 adrenergic receptors in human astrocytoma cells (1321N1) (Homo sapiens (Human), UniProt P07550); assay: cAMP HTRF assay in human astrocytoma cells (1321N1); settings: Endogenous receptor, 1321N1 cells
Procedure: cAMP homogeneous time-resolved fluorescence (HTRF). Compound efficacy was determined using the cAMP Gs dynamic HTRF assay (Cisbio, catalog #62AM4PEC) largely following the manufacturer's instructions, also detailed below.
Compound preparation. […] Standard serial dilution curves were 10-point, 5-fold dilutions starting from a highest concentration of 10 μM. […] Assay plates were centrifuged at 500×g for 10 seconds. Compounds and IBMX were prepared at 2× final dose to compensate for addition of cells.
Cell preparation. 1× stimulation buffer, washing PBS (Dulbecco's phosphate-buffered saline, −Mg −Ca; Caisson Labs, catalog #PBL01), assay PBS (Dulbecco's phosphate-buffered saline, +Mg, +Ca; Caisson Labs, catalog #PBL02) and Versene (0.02% EDTA disodium salt solution in PBS without calcium or magnesium; Caisson Labs, catalog #EDL01) were pre-warmed to 37° C. Cells expressing beta-adrenergic receptor were washed in washing PBS to remove growth medium and then released from the surface by incubating with Versene for 5-10 minutes at 37° C. Cells were harvested using assay PBS, counted manually by hemocytometer or by an automated cell counter, pelleted by centrifugation (200×g, 5 minutes) and resuspended in 37° C. 1× stimulation buffer to a final density of 1.5×10^6 cells/mL. 5 μL of the suspended cell solution (7500 cell total) were added to all wells of the 384 well assay plate, the assay plate was covered with an Axygen® plate seal (Corning PCR-SP) and incubated in a humidified 37° C. environment supplemented with 5% CO2 for 30 minutes.
HTRF reagent addition, reading and data analysis. After 30 minutes of cell stimulation with test compound, the assay plates were centrifuged at 500×g for 10 seconds, and incubation was stopped with the addition of 5 μL cAMP-D2 acceptor, diluted 1:21 in detection and lysis buffer 2 (Cisbio 62CL2FDF) was added to all cells. Subsequently, 5 μL Anti-cAMP-Eu Donor, diluted 1:21 in detection and lysis buffer 2, was added to cells. Plates were sealed and reactions gently ‘vortexed’ at 900 rpm on a Heidolph Titramax 1000 for at least 30 minutes at room temperature. Plates were centrifuged again at 500×g for 10 seconds, and HTRF was measured using a Tecan Spark plate reader at 50 flashes per well. […] Potency estimates (EC50) were derived from the four-parameter nonlinear regression of the concentration-effect curve and an estimate of relative efficacy was determined by comparing the magnitude of the test compound HTRF signal window (min−max dose) with the signal window of the full agonist control, isoproterenol.

B3-AR = B3-AR (Homo sapiens (Human), UniProt P13945); assay: cAMP potency assay, B3-AR expressing CHO-K1 cells
[2] = CHO-K1 (HitHunter), read-out: Average pEC50 [Receptor subtype: B1-AR, Cell type: CHO-K1 (HitHunter)] (converted)
[3] = CHO-K cells, read-out: Average EC50 [Receptor subtype: B1-AR, Cell type: CHO-K]
[4] = CHO-K1 (HitHunter), read-out: Average pEC50 [Receptor subtype: B2-AR, Cell type: CHO-K1 (HitHunter)] (converted)
[5] = CHO-K cells, read-out: Average EC50 [Receptor subtype: B2-AR, Cell type: CHO-K]
[6] = read-out: Average EC50 [Receptor subtype: Endogenous, Cell type: 1321N1]
[7] = read-out: Average EC50 [Receptor subtype: B3-AR, Cell type: CHO-K1]
[8] = read-out: Average pEC50 [Receptor subtype: Endogenous, Cell type: 1321N1] (converted)
[9] = read-out: Average pEC50 [Receptor subtype: B3-AR, Cell type: CHO-K1] (converted)

Chain of β1-adrenergic receptor (P08588 whole entry, species assumed): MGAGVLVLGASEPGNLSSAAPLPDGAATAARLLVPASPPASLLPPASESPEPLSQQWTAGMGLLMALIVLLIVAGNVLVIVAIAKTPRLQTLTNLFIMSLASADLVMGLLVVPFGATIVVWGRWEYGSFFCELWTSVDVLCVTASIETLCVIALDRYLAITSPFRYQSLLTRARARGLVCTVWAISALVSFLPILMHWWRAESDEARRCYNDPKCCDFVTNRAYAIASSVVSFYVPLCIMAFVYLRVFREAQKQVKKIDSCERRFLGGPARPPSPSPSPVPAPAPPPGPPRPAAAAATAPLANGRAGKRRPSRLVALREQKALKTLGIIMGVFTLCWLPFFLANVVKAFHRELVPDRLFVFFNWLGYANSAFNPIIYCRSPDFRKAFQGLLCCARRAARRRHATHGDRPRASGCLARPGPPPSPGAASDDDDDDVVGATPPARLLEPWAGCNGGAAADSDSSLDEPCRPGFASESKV
Chain of β2 adrenergic receptor (P07550 whole entry, species assumed): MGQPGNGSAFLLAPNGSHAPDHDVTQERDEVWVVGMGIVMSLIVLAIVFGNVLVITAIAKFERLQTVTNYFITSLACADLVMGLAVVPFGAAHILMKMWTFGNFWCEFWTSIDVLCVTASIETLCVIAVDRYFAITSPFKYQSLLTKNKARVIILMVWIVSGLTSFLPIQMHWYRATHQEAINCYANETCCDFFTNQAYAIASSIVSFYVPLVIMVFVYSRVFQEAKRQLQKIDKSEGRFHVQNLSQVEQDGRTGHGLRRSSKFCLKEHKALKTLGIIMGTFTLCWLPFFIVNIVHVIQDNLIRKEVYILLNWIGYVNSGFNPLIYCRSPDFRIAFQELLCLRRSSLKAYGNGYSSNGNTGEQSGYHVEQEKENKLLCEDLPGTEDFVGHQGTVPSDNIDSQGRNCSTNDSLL
Chain of β2 adrenergic receptors in human astrocytoma cells (1321N1) (P07550 whole entry): as the sequence (P07550 whole entry, species assumed) above
Chain of B3-AR (P13945 whole entry, species assumed): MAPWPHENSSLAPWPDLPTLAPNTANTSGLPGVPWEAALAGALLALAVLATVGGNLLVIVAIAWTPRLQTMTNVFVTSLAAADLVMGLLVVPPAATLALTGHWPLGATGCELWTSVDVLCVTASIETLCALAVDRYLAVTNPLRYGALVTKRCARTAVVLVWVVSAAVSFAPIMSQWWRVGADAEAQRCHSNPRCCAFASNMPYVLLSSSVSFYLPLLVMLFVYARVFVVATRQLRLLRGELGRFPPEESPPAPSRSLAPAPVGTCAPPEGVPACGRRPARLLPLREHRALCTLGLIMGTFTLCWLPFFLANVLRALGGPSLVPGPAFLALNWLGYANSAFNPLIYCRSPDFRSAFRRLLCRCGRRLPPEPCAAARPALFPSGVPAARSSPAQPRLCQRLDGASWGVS

| SMILES | EC50 (β1-adrenergic receptor; [2]) [nM] | EC50 (β1-adrenergic receptor; [3]) [nM] | EC50 (β2 adrenergic receptor; [4]) [nM] | EC50 (β2 adrenergic receptor; [5]) [nM] | Average pEC50 [Receptor subtype: Endogenous; Cell type: 1321N1] [1] | EC50 [1, 6] [nM] | Average pEC50 [Receptor subtype: B3-AR; Cell type: CHO-K1] (B3-AR) | EC50 (B3-AR; [7]) [nM] | EC50 [1, 8] [nM] | EC50 (B3-AR; [9]) [nM] | Average pEC50 [Receptor subtype: B1-AR; Cell type: CHO-K1 (HitHunter)] (β1-adrenergic receptor; CHO-K1 (HitHunter)) |
| --- | --- | --- | --- | --- | --- | --- | --- | --- | --- | --- | --- |
| CC(C)(C)NC[C@H](O)c1cccc(C(F)F)n1 [Compound 03-44] | 10 to 100 | 10 to 100 | 10 to 100 | 10 to 100 | C (C = <7-6) | 100 to 1000 | D (D < 6) | > 1000 |  |  |  |
| CCOc1ncccc1[C@@H](O)CNC(C)(C)C [Compound 03-58] | 10 to 100 | 10 to 100 | 10 to 100 | 10 to 100 | B (B = 8-7) | 10 to 100 | D (D < 6) | > 1000 |  |  |  |
| COc1ccc(C[C@@H](C)NC[C@H](O)c2cccc(C(F)(F)F)n2)cc1 [Compound 03-15] | < 10 | < 10 | < 10 | < 10 |  |  |  |  | < 10 | 100 to 1000 |  |
| CC(C)(C)NCC(O)c1cncc(Cl)n1 (stereo not shown) [Compound 03-219] | 100 to 1000 |  | 100 to 1000 |  |  |  |  |  | > 1000 | 100 to 1000 |  |
| CC(C)(C)NC[C@H](O)c1cncc(C(F)(F)F)n1 [Compound 03-38] |  | 100 to 1000 | 10 to 100 | 10 to 100 | C (C = <7-6) | 100 to 1000 |  | > 1000 |  | > 1000 | C (C = <7-6) |
| Cc1ccc([C@@H](O)CNC(C)(C)C)nc1C#N [Compound 03-8] | > 1000 | > 1000 | 100 to 1000 | 100 to 1000 |  |  |  |  | > 1000 | > 1000 |  |
| CC(C)(C)NC[C@H](O)c1cccc(N2CCCC2)n1 [Compound 03-173] | 100 to 1000 | 100 to 1000 | < 10 | < 10 |  |  |  |  | < 10 | > 1000 |  |
| CC(C)c1cccc([C@@H](O)CNC(C)(C)C)n1 [Compound 03-175] | 10 to 100 | 10 to 100 | < 10 | < 10 |  |  |  |  | < 10 | > 1000 |  |
| O[C@@H](CNC1Cc2ccccc2C1)c1cccc(C(F)(F)F)n1 [Compound 03-21] | 100 to 1000 | 100 to 1000 | 10 to 100 | 10 to 100 |  |  |  |  | 10 to 100 | > 1000 |  |
| CCOc1cccc([C@@H](O)CNC(C)(C)C)n1 [Compound 03-177] | 10 to 100 | 10 to 100 | < 10 | < 10 |  |  |  |  | < 10 | 100 to 1000 |  |
| CC(C)(C)NC[C@H](O)c1cccnc1C1CCCC1 [Compound 03-53] |  | > 1000 | 10 to 100 | 10 to 100 | C (C = <7-6) | 100 to 1000 |  | > 1000 |  | > 1000 | D (D < 6) |
| CC(C)Oc1cccc([C@@H](O)CNC(C)(C)C)n1 [Compound 03-179] |  | 100 to 1000 | < 10 | < 10 |  |  |  |  | < 10 | 100 to 1000 | C (C = <7-6) |
| CC(C)NC[C@H](O)c1cccc(C2CC2)n1 [Compound 03-10] | 10 to 100 | 10 to 100 | < 10 | < 10 | B (B = 8-7) | 10 to 100 | D (D < 6) | > 1000 |  |  |  |
| CNc1cccc([C@@H](O)CNC(C)(C)C)n1 [Compound 03-141] | 10 to 100 | 100 to 1000 | < 10 | < 10 |  |  |  |  | 10 to 100 | > 1000 |  |
| CC(C)Oc1ncccc1[C@@H](O)CNC(C)(C)C [Compound 03-57] |  | 100 to 1000 | 10 to 100 | 10 to 100 | C (C = <7-6) | 100 to 1000 |  | > 1000 |  | > 1000 | C (C = <7-6) |
| CC(C)(C)NC[C@H](O)c1cccc(C2CCC2)n1 [Compound 03-161] |  | < 10 | < 10 | < 10 |  |  |  |  | < 10 | 100 to 1000 | A (A > 8) |
| Cc1ccc([C@H](O)CNC(C)(C)C)nc1C(F)(F)F [Compound 03-168] | 10 to 100 | 10 to 100 | 10 to 100 | 10 to 100 |  |  |  |  | 100 to 1000 | 100 to 1000 |  |
| CC1(NC[C@H](O)c2cccc(C(F)(F)F)n2)CCC1 [Compound 03-11] | 10 to 100 | 10 to 100 | < 10 | < 10 |  |  |  |  | 100 to 1000 | > 1000 |  |
| Cc1ccc([C@@H](O)CNC(C)(C)C)nc1C(F)(F)F [Compound 03-167] | < 10 | < 10 | < 10 | < 10 |  |  |  |  | < 10 | > 1000 |  |
| CC(C)(COc1ccccc1)NC[C@H](O)c1cccc(C(F)(F)F)n1 [Compound 03-184] |  | 10 to 100 | 10 to 100 | 10 to 100 |  |  |  |  | 10 to 100 | 100 to 1000 | B (B = 8-7) |
| O[C@@H](CNC1CCC1)c1cccc(C(F)(F)F)n1 [Compound 03-33] |  | < 10 | < 10 | < 10 |  |  |  |  | 10 to 100 | > 1000 | A (A > 8) |
| CC(C)(C)NC[C@H](O)c1cccc(OC(F)(F)F)n1 [Compound 03-37] | 10 to 100 | 10 to 100 | < 10 | < 10 |  |  |  |  | < 10 | 100 to 1000 |  |
| CC(C)(C)NC[C@H](O)c1cccc(C(C)(F)F)n1 [Compound 03-169] |  | 10 to 100 | < 10 | < 10 |  |  |  |  | 100 to 1000 | > 1000 | B (B = 8-7) |
| Cc1cc([C@@H](O)CNC(C)(C)C)nc(C(F)(F)F)c1 [Compound 03-19] | 100 to 1000 | 100 to 1000 | 10 to 100 | 10 to 100 |  |  |  |  | 100 to 1000 | > 1000 |  |
| CC1(NC[C@H](O)c2cccc(C(F)(F)F)n2)CC1 [Compound 03-14] | 10 to 100 | 10 to 100 | 10 to 100 | 10 to 100 |  |  |  |  | 100 to 1000 | > 1000 |  |
| Cc1ccc([C@@H](O)CNC(C)(C)C)nc1 [Compound 03-127] | 10 to 100 | 10 to 100 | 10 to 100 | 10 to 100 |  |  |  |  | 10 to 100 | > 1000 |  |
| COc1ccc(CC(C)(C)NC[C@H](O)c2cccc(C(F)(F)F)n2)cc1 [Compound 03-182] | 10 to 100 | 10 to 100 | < 10 | < 10 |  |  |  |  | < 10 | 100 to 1000 |  |
| Cc1ccc([C@H](O)CNC(C)(C)C)nc1C#N [Compound 03-9] | 10 to 100 | 10 to 100 | < 10 | < 10 |  |  |  |  | 10 to 100 | 100 to 1000 |  |
